According to US8937063B2 (Trustees of Tufts College, priority 2010, dated 2015):

How the values were obtained:
[1] = Single oral dose pharmacokinetic comparison niacin, ARI-001, 2230C in wild type mice; format: in vivo, C57BL/6 mice; settings: single bolus oral gavage, mouse plasma; for AUC / Cmax / Tmax / half-life: C57BL/6; for half-life: read-out: half-life (t1/2) (converted)
Source text: Compound 2230C has the structure

[2] = system: high fat+fructose (HF/HS) diet hamsters; assay: 18-day oral dosing lipid study in HF/HS hamsters; format: in vivo, male Golden Syrian hamsters; settings: niacin 1200 mg/kg oral once daily 18 days, mean ± SD
Method: We examined the effects of diet modulation on the lipid profile of male Syrian Golden hamsters. Hamsters were ordered from Charles River Labs (Wilmington, Mass.), and requested to be 111-120 g in weight (correspondingly 56-61 days old). Hamsters were kept in cages of 4-5 per cage, and maintained on a standard light cycle of 12 hours on/12 hours off. All diets were obtained from Dyets, Inc. (Bethlehem, Pa.). “Normal Diet” was a standard rodent chow, catalog #5001, produced into pellets. Water and this standard chow diet were available to this group of hamsters ad libitum. Food was added to cages as needed, but no less frequently than twice per week. “High Fat Diet” was the same standard rodent chow supplemented with the following: 11.5% corn oil, 11.5% coconut oil, 0.5% cholesterol, and 0.25% deoxycholate. This is also available directly from Dyets, Inc., as catalog #611201. Both diets were ordered in 10 kg batches and stored at 4° C. for durations of the experiments (4-8 weeks), and at −20° C. for longer storage (up to six months). Water and this high fat diet were available to this group of hamsters ad libitum. The “High Fat+Fructose” group was fed the same fat-supplemented chow as the “high fat diet” group (#611201), but water was supplemented with fructose to a final concentration of 10%. Fructose was supplied from Now Foods (catalog #6931) and distributed by Lucky Vitamin (catalog #WB48432). Fructose water was prepared by adding 400 g of fructose to 4 L of water and stirring at room temperature until dissolved. Fructose water was stored at 4° C. until use. When provided to hamsters, fructose water was kept in a water bottle in the hamster cages at room temperature, exactly as standard water was. Fructose water and high fat chow were provided to this group of hamsters ad libitum. All animals remained on their respective diets for 21 days.
To begin this experiment, hamsters were randomly assigned to groups defined by the diet modifications above. After a fixed time, blood was collected from hamsters (N=3-4) to determine the lipid contents of the plasma. Because of limitations in the ability to adequately collect blood from hamsters, all blood samples were obtained via a terminal cardiac puncture preceded by asphyxiation with carbon dioxide. Blood (approximately 2 mL volume) was collected with a 22 G needle into a 5 mL syringe and transferred to a K2EDTA tube. The samples were kept on ice until centrifugation (14,000 rpm for 10 minutes at 4° C.) to separate plasma. Plasma was then aliquoted to tubes for storage at −80° C. until analysis.
Lipid parameters were determined using commercially available kits from Wako USA (Richmond, Va.) according to manufacturer's directions.
Male Golden Syrian hamsters were purchased from Charles River Labs (111-120 g, 56-61 days) and acclimated to a high fat+fructose (herein, referred to as “HF/HS”) diet as described above for two weeks. Hamsters were assigned into cohorts by body weight after two weeks' acclimation to the diet. […] Hamsters were dosed once per day for a total of 18 days. All animals remained on the above-described HF/HS diet throughout the dosing period. Dosing solutions for each cohort were prepared for 7 days at a time, although enough was prepared to last for 8 days. Each solution was stored at room temperature between administrations. Cohorts were defined according to Table 2 below.

[3] = Human clinical trial, single oral doses: serum concentration; format: in vivo; settings: in vivo, 1500 mg, read-out: Cmax
Method: Five periods of single dose escalation, with 8 subjects per cohort (6 drug: 2 placebo) involve a total 40 subjects. Appropriately blinded matching placebos are provided. Cohort 1 receives 500 mg of ARI-001 formulated as a single oral tablet, plus eleven placebo tablets; Cohort 2, […] of ARI-001, plus ten placebo tablets; Cohort 3, […] of ARI-001, plus eight placebo tablets; Cohort 4, […] of ARI-001, plus four placebo tablets; Corhort 5, […] of ARI-001. Placebo-only subjects take twelve placebo tablets. Each tablet is a compressed, film-coated tablet suitable for oral administration.
Pharmacokinetic samples are collected at 0-45 min pre-dose and at 0.5, 1, 1.5, 2, 4, 6, 8, 12, 24, 30 and 168 hours after dosing. […]
[…] […] Analysis of all samples is performed at a central laboratory.

| Cmax/AUC0-24 [1] [h⁻¹] | SMILES | AUC [1] [µM·h] | Cmax [1] [µM] | Tmax [1] [h] | half-life [1] [h] | AUC (% Niacin) [1] [% Niacin] | C24 h/Cmax [1] [%] | Cmax (% Niacin) [1] [% Niacin] | HDL/TC [2] | FFA (free fatty acids) ([2]; plasma) [mEq/L] | HDL ([2]; plasma) [mg/dL] | LDL ([2]; plasma) [mg/dL] | TG (triglycerides) ([2]; plasma) [mg/dL] | Cmax [3] [ng/mL] |
| --- | --- | --- | --- | --- | --- | --- | --- | --- | --- | --- | --- | --- | --- | --- |
| 0.18 | O=C(O)c1ccc(CCN2CCCC2)nc1 [Compound 2230C] | 686 | 126 | 0.31 | 3.47 | 5.8 | 2.1 | 3.0 |  |  |  |  |  |  |
|  | O=C(O)c1cccnc1 [Niacin, nicotinic acid] | 11700 | 4090 | 0.5 | 1.75 | 100 | 0.02 | 100 | 0.17 ± 0.11 | 1.82 ± 0.69 | 79 ± 26 | 170 ± 52 | 1555 ± 808 | ~30000 |
